In paper PMC11201866, “Antiproliferative effect of indeno[1,2-d]thiazolo[3,2-a]pyrimidine analogues on IL-6 mediated STAT3 and role of the apoptotic pathway in albino Wistar rats of ethyl carbamate-induced lung carcinoma: In-silico, In-vitro, and In-vivo study” (Cancer Cell International, 2024):
Where two headings read alike, the source gives them in different places.

Assays:
[1] = tested on: Human Lung Cancer Cell Line A-549; test: In-vitro cell cytotoxicity (SRB) assay; type: cell-based
Experimental: To determine the cytotoxicity potential of the synthesized compounds. All samples were sent to the ACTREC, Tata Memorial Centre, Mumbai, India. They followed the standard protocol for sample analysis of the synthesized compounds. Adriamycin (ADR) was selected as a standard at 10, 20, 40, and 80 µg/mL to screen for indeno [1, 2-d] thiazolo [3,2-a] pyrimidine analogues. GI50 growth inhibition of 50% was calculated using the [(Ti − Tz)/(C − Tz)] ×100% formula, where C, controlled growth; Tz, time zero growth; and Ti, test growth at four concentration levels in the presence of the drug.
LC50 = Concentration of drug causing 50% cell kill
TGI = Concentration of drug causing total inhibition of cell growth
GI50 = Concentration of drug causing 50% inhibition of cell growth

[2] = tested on: ethyl-carbamate (EC)- induced LC; test: In-vivo antineoplastic study, EC-induced lung carcinoma (weight, lipid profile, oxidative markers, histopathology, SEM); parameters: species or system albino Wistar rats; settings: EC-induced LC rats; for Histopathological analysis of lung tissue (H&E): 10 mg/kg for 15 days; for Weight variation (change in body weight): 10 mg/kg for 15 days (9B, 12B p.o.; 5-FU i.p.); for Serum lipid profile (TC, TG, LDL, VLDL, HDL) / Oxidative changes (SOD, GSH, ProC, TBARs): 10 mg/kg p.o. for 15 days; for Oxidative changes (SOD, GSH, ProC, TBARs): lung tissue homogenate
Experimental: (§1) Six-week-old experimental male albino Wistar rats (100–120 g) were procured from the animal house facility of Babu Banarasi Das Northern India Institute of Technology Lucknow and approved by the Institutional Animal Ethical Committee (CPCSEA No. 809/PO/Re/S/03/CPCSEA) with approval no. BBDNIIT/IAEC/APR/2022/06. The animal welfare protocol and experiments were performed as per the CPCSEA guidelines for laboratory animals and ethics, Department of Animal Welfare, Government of India. They were randomly distributed into five groups of eight animals each. The experimental rats were acclimated under standard research laboratory conditions with free access to standard rat chow and water ad libitum. Group 1 (NC, normal control group): 0.25% CMC (2 mL/kg, p. o.), Group 2 (CC, carcinogen control/EC-exposed group): EC (0.375 mg/kg, four i.p. injections within a gap of three weeks between each dose over twelve weeks period), Group 3 (PC, positive control group): EC + 5-FU (10 mg/kg, i.p. for 15 days after EC induced LC), Group 4 (9B): EC + Compound 9B (10 mg/kg, p.o. for 15 days after EC induced LC), and Group 5 (12B): EC + Compound 12B (10 mg/kg, p.o. for 15 days after the induction of LC). At the end of the treatment, the animals were euthanized by cervical decapitation after anesthesia using a combination of diazepam and ketamine hydrochloride (5 mg/kg, and 100 mg/kg, i.m. respectively). The lung was excised immediately, rinsed in ice-cold saline, and stored at -80 °C for further study. Serum was collected and stored for further analysis.
Change in body weight (gm) was measured on the initial and final day of the experiment, and percent (%) weight gain/loss was calculated.
Serum total cholesterol (TC), triglycerides (TG), and high-density lipoprotein (HDL) levels were measured by using lipid profile kits (Agappe Diagnostic Ltd., Kerala, India). In brief, the assay was performed according to the manufacturer’s instructions. Low-density lipoprotein (LDL) and very-low-density lipoprotein (VLDL) levels were estimated and calculated using Friedewald’s formula [24].
Biochemical parameters such as protein carbonyl (PC), superoxide dismutase (SOD), glutathione (GSH), and thiobarbituric acid reactive substances (TBARs) were estimated in 10% lung tissue homogenate using our previously standardized laboratory protocols.
Histopathological studies were conducted to determine intracellular changes in lung tissue. Tissue samples were stained with H&E (haemotoxyline and eosin) using a methodology established previously at our laboratory for histological analysis and observed under an optical microscope (Steindroff N-120, 40X).
Lung tissue samples of 2–4 mm thickness were sectioned, and the samples were prepared by fixation, washing, post-fixation, and dehydration according to the standardized procedures of our laboratory. Finally, the samples were mounted on aluminium stubs with adhesive tape and examined for morphological changes using SEM (JEOL JSM-6490LV).

[3] = tested on: albino Wistar rats; test: Acute toxicity study (OECD 423); type: in vivo; settings: oral, 15 days, 5, 10, and 15 mg/kg; for Toxic effect: histology of lung, liver, kidney
Experimental: It is necessary to investigate the safety and efficacy of the synthesized compounds in vivo, which was performed as per the guidelines of the Organization for Economic Cooperation and Development guidelines 423 (OECD 423). The synthesized compounds were orally administered at doses of 5, 10, and 15 mg/kg body weight to albino Wistar rats for 15 days (n = 5), and the animals were observed every day for any toxic signs at various doses. Morphological and oxidative stress parameters were used to determine dose-related toxicity.

[4] = tested on: IL-6, STAT-3, Bax, Bcl-2, Cyt-C, Caspase-9, and Caspase-3; test: Western blot analysis of lung samples of EC-induced LC rats; type: in vivo, albino Wistar rats; settings: 10 mg/kg p.o. for 15 days; for Expression of IL-6, STAT-3, and Bcl-2 / Expression of caspases (Caspase-3 and Caspase-9): vs CC group
Experimental: as §1
Protein expression levels of IL-6 (pro-inflammatory), STAT-3 (pro-inflammatory), Bax (pro-apoptotic), Bcl-2 (anti-apoptotic), Cyt-C (pro-apoptotic), Caspase-9, and Caspase-3 (pro-apoptotic/executor caspase) were assessed by immunoblotting. Proteins were electrophoresed on sodium dodecyl sulphate polyacrylamide gel (SDS-PAGE) and probed to detect molecules of interest in the mixture. The membrane was developed with enhanced chemiluminescence ECL, and images were obtained using Chemidoc XRS+ (Bio-rad).

[5] = Pharmacokinetic study in rat plasma using HPLC; type: in vivo, albino Wistar rats; settings: 10 mg/kg p.o.; for AUC(0-inf) / Cmax / MRT / Tmax / half-life: Wistar, po; for AUC(0-inf) / Cmax / MRT / Tmax / half-life / AUMC: rat plasma
Experimental: 9B and 12B compounds were orally administered at 10 mg/kg (p.o. dose obtained from acute toxicity studies) to rats, and blood was collected from the latetal tail vein at 0.083, 0.25, 0.5, 1, 2, 4, 8, 12, 16, 24, and 48 h. After collection, blood was centrifuged and plasma was separated, which was kept at -20 °C for further HPLC determination. Chromatographic separations were performed using a Shimadzu Prominence-I LC-2030 Plus equipped with HPLC and a photodiode array (PDA) detector. The mobile phase consisted of a gradient elution of 2:8, water: methanol, and a continuous flow rate of 1 mL/min in an RP-C18 column (5.0 µ particle sizes, 4.6 mm internal diameter, and 250 mm length) with different λmax of 310 and 320 nm, respectively, at 40 °C throughout the experiment. The column was washed using an elution solvent (water: methanol = 50:50) after each run, and the final output was analyzed using WinNonlin version 1.5.3 software.

[6] = tested on: IL-2, IL-6, IL-10, and IL-1β; test: Cytokine estimation (ELISA) in EC-induced LC rats; type: in vivo, albino Wistar rats; settings: 10 mg/kg p.o. for 15 days, vs CC group
Experimental: as §1, with “The lung was excised immediately, rinsed in ice-cold saline, and stored at -80 °C for further study. Serum was collected and stored for further analysis.” left out

[7] = Homo sapiens, A549 cell line, unit inferred, read-out: GI50 value

SMILES: COc1cccc2c1C(=O)c1c(O)c3c(c(O)c1C2=O)C[C@@](O)(C(=O)CO)C[C@@H]3O[C@H]1C[C@H](N)[C@H](O)[C@H](C)O1 [ADR, Adriamycin, reference compound]
- TGI (concentration of drug causing total inhibition of cell growth) ([1]; A-549 cells, SRB assay): <10 µg/mL
- GI50 ([1]; Homo sapiens, A549, A-549 cells, SRB assay, read-out: GI50 (concentration of drug causing 50% inhibition of cell growth)): < 10 µg/mL

SMILES: O=c1[nH]cc(F)c(=O)[nH]1 [Compound 5-FU, 5-Fluorouracil, reference compound]
- Histopathological analysis of lung tissue (H&E) [2]: histopathological recovery of lung tissue architectures
- Weight variation (change in body weight) [2]: 7.21 ± 1.75 gm

SMILES: COc1ccc2c(c1)CC1=C2N=C2SC=CN2C1c1cc(OC)c(OC)c(OC)c1 (stereo not drawn) [Compound 9B, 8-methoxy-5-(3,4,5-trimethoxyphenyl)-5,6-dihydroindeno[1,2-d]thiazolo[3,2-a]pyrimidine]
- Antioxidant markers SOD, CAT, GSH, and TBARs values [3]: no change
- Toxic effect [3]: no toxic effect
- Expression of IL-6, STAT-3, and Bcl-2 [4]: decreased
- Expression of caspases (Caspase-3 and Caspase-9) [4]: increased
- LC50 ([1]; Homo sapiens, A549, A-549 cells, SRB assay, read-out: LC50 (concentration of drug causing 50% cell kill)): > 80 µg/mL
- GI50 [1, 7]: < 20 µg/mL
- AUC(0-inf) [5]: 288 µg·h/mL
- Cmax [5]: 30800 ± 1590 ng/mL
- MRT [5]: 10.6 ± 0.99 h
- Tmax [5]: 4 h
- half-life [5]: 7.95 h
- AUMC [5]: 3028.82 µg.h^2/ mL
- Levels of cytokine IL-1β, IL-2, IL-6, and IL-10 [6]: significantly decreased
- Histopathological analysis of lung tissue (H&E) [2]: histopathological recovery of lung tissue architectures
- Weight variation (change in body weight) [2]: 6.01 ± 1.08 gm
- Serum lipid profile (TC, TG, LDL, VLDL, HDL) [2]: restored the alteration of the lipid profile
- Oxidative changes (SOD, GSH, ProC, TBARs) [2]: restoring the altered levels of SOD, GSH, ProC, and TBARs

SMILES: Clc1ccc(C2C3=C(N=C4SC=CN42)c2ccccc2C3)cc1 (stereo not drawn) [Compound 12B, 5-(4-chlorophenyl)-5,6-dihydroindeno[1,2-d]thiazolo[3,2-a]pyrimidine]
- Antioxidant markers SOD, CAT, GSH, and TBARs values [3]: no change
- Toxic effect [3]: no toxic effect
- Expression of Bax and Cyt-C ([4]; 12B compared with 9B): higher expression with 12B treatment than with 9B treatment
- Expression of IL-6, STAT-3, and Bcl-2 [4]: decreased
- Expression of caspases (Caspase-3 and Caspase-9) [4]: increased
- GI50 [1, 7]: < 10 µg/mL
- AUC(0-inf) [5]: 436 ± 8.59 µg·h/mL
- Cmax [5]: 40200 ± 2060 ng/mL
- MRT [5]: 10.4 ± 1.08 h
- Tmax [5]: 4 h
- half-life [5]: 11.5 h
- AUMC [5]: 4557.60 µg.h^2/ mL
- Biological availability (in words) ([5]; rat, compared with 9B): good biological availability as compared to 9B
- Levels of cytokine IL-1β, IL-2, IL-6, and IL-10 [6]: significantly decreased
- Histopathological analysis of lung tissue (H&E) [2]: histopathological recovery of lung tissue architectures
- Weight variation (change in body weight) [2]: 17.52 ± 1.33 gm
- Serum lipid profile (TC, TG, LDL, VLDL, HDL) [2]: restored the alteration of the lipid profile
- Oxidative changes (SOD, GSH, ProC, TBARs) [2]: restoring the altered levels of SOD, GSH, ProC, and TBARs
